These results are taken from patent publication US10487054B2, “Therapeutic compounds” (REGENTS OF THE UNIVERSITY OF MINNESOTA, priority 2017, dated 2019).

Structures are written as SMILES.

The test system of this series is SKH-1 hairless mice. Kind of series: SUV-induced mouse skin tumorigenesis, late-stage prevention model. The class given is in vivo. Here is the method: Tumor volume was calculated according to the following formula: tumor volume (mm^3)=length×width×height×0.52. […] For 5B and 5C, data are represented as mean values±S.D. and differences were determined by one-way ANOVA. The asterisk (*) indicates a significant decrease compared to the group exposed to SUV only or the group treated with vehicle followed by SUV (***, p<0.001). […] Dorsal trunk skin samples were harvested and stained with H&E (left panels) or with an antibody to detect PCNA (right panels). […] Expression of PCNA was quantified using Image-Pro Plus software and stained cells were counted from 5 separate areas on each slide (lower panel). An average of 3 samples was calculated per group. Data are expressed as mean percent of control±S.D. and the asterisks indicate a significant difference in PCNA expression (***, p<0.001). […] The expression levels of phosphorylated and total proteins were analyzed by Western blot.
Mice were weighed once a week until week 28. […] SKH-1 hairless mice were treated as described in Materials and Methods. The mice in the control groups (n=9) received no vehicle/no SUV (n=3), vehicle/no SUV (n=3), or 1 mg compound 1/no SUV (n=3), respectively. The mice in the rest of the groups received SUV irradiation for 15 weeks 3 times a week. The mice in the vehicle/SUV-treated group (n=12) were treated with oil-in-water emulsion cream 3 times a week until the end of the experiment (28 weeks). The mice in the 0.1 mg/SUV or 1 mg/SUV groups (n=12 each) received treatment with compound 1 (0.1 or 1 mg, respectively) 3 times a week until the end of the experiment (28 weeks). The respective doses of oil-in-water emulsion cream or compound 1 were applied topically to the dorsal area. Tumor incidence and multiplicity were recorded weekly until the end of the experiment at week 28.
Female SKH-1 hairless mice were purchased from Charles River and were acclimated for 2 weeks before the study and had free access to food and water. All animals were maintained according to the guidelines approved by the University of Minnesota Institutional Animal Care and Use Committee (IACUC). The animals were housed in climate-controlled quarters with a 12-h light/dark cycle. The skin carcinogenesis experiments were conducted using 6-8 wk old mice with a mean body weight of 25 g. Skin carcinogenesis was induced by a solar simulated ultraviolet irradiation system. The SUV irradiation source (Q-Lab Corporation, Westlake, Ohio) emitted at wavelengths of 295 to 365 nm and the peak emission was 340 nm.
For the late-stage prevention model, the control and experimental groups were identical to those for the early prevention model. However, the experimental groups of mice were exposed to SUV irradiation 3 times a week for 15 weeks without application of vehicle or compound 1 in vehicle. At the end of 15 weeks, SUV exposure was stopped and application of vehicle with or without compound 1 was begun and continued for 13 weeks until week 28 at which time the study was discontinued and mice euthanized and tissues harvested.
At week 1, mice were irradiated with SUV at a dose of 36 kJ/m^2 UVA and 1.8 kJ/m^2 UVB. At week 6, the dose of SUV reached 60 kJ/m^2 UVA and 2.9 kJ/m^2 UVB and this dose was maintained from week 6 to week 15. The respective doses of vehicle or compound 1 were applied topically to the dorsal area. Mice were weighed and tumors were measured once a week until week 28 or when tumor load reached 1 cm^3 total volume. At that time mice were euthanized and one-half of each sample was immediately fixed in 10% formalin and processed for hematoxylin and eosin (H&E) staining and immunohistochemistry. The other one-half of the sample was frozen and used for Western blot analysis.
Skin tissues were embedded in paraffin and subjected to immunohistochemistry. Tissues were de-paraffinized and hydrated and then permeabilized with 0.5% Triton X-100/1×PBS for 10 min. […]

The mark [1] stands for this setting: late-stage model, topical 0.1 or 1 mg, vs vehicle-treated group, 28 weeks.

Consider `O=C1Nc2ccc(C34CC5CC(CC(C5)C3)C4)cc2C1=NO` [compound 1, 5-(adamantan-1-yl)-3-(hydroxyimino)indolin-2-one], for which, for the setting “late-stage model, H&E”, the epidermal thickness result is “dramatically decreased” and the “formation of SCCs” value is listed as “inhibited”. Further, for the setting “late-stage model, Western blot”, the “SUV-induced phosphorylation of ERK1/2, p38, and JNKs in mouse skin” value is reported as “dramatically suppressed”. Moreover, the “expression of PCNA” value (late-stage model, immunohistochemistry of skin) is “decreased”. For the same compound, under setting [1], the tumor multiplicity result is “significantly reduced” and the tumor volume entry is listed as “significantly reduced”. Besides, the malignancy rate entry (late-stage model, vs vehicle-treated mice) was “significantly decreased”. Besides, under “late-stage prevention group”, the SUV-induced tumor incidence result was “substantial suppression”. Under “topical application on dorsal skin, late-stage model, to week 28”, the body weight result is given as “no effect on body weight”.
